The text below walks through data of patent publication US20250188032A1, “NITROGEN-CONTAINING HETEROCYCLIC COMPOUNDS AND USES THEREOF” (BNH RESEARCH CO., LTD., priority 2022, published 2025).

Each structure is given as a SMILES string.

For experiment [1], the system named is HDAC4, BDNF and GluN2B expression in C57BL/6J mice cortex. Briefly: Western blotting of HDAC4, BDNF and GluN2B in mouse cortical tissue after administration. It counts as in vivo. How it is done:
For preparation of thalamocortical (TC) slices, 9- to 10-week-old male C57BL/6J rodents (mice) were anesthetized with isoflurane. Then, the brains were rapidly cooled by transcardial perfusion with ice-cold sucrose-artificial cerebrospinal fluid (aCSF). The brains were removed and placed in ice-cold sucrose aCSF. Paracoronal slices were prepared at a 50° angle to the midline on a ramp at an angle of 10°. The slices were then incubated in aCSF for 30 minutes at 35° C. to recover.
Subsequently, the slices were incubated in aCSF for 1 to 4 hours at room temperature (23 to 25° C.) before being placed in the recording chamber for experiment. Standard aCSF contains saturated with 95% O2/5% CO2.
All electrophysiological experiments were conducted at 27 to 29° C. Rodent (mice) was perfused with […] a sucrose-based aCSF solution (4° C.) using gravity. The brain of the rodent (mice) was removed and cut into 400 urn at a 50° angle (mouse at a 55° angle) to attach the cut portion to the vibratome disc to be the bottom. Brain slice was incubated in Incubate aCSF solution at 35° C. for 30 minutes or Incubate aCSF solution at RT for 1 hour. Cortical tissue from mice was prepared according to protocol above then was homogenized and lysed for protein extraction. The protein lysate was prepared from the tissue with NP40(FNN0021, Invitrogen) protein lysis buffer containing protease & […] according to the manufacturer's instruction. Protein concentrations were determined using the BCA Protein Assay Kit (Pierce Biotechnology) with bovine serum albumin as a standard. Equal amounts of proteins (20 μg per lane) were separated by electrophoresis on 8% or 12% SDS-polyacrylamide gel, followed by blotting onto PVDF membranes (GE Healthcare). To block nonspecific binding, the membranes were incubated for 1 h at room temperature in 5% non-fat dry milk in PBST (150 mM NaCl, 50 mM Tris, pH 7.4, 0.05% Tween 20). The following antibodies were incubated overnight at 4° C. in 2% blocking solution: Anti-HDAC4 (SAB4300413, Sigma-Aldrich), Anti-BDNF (ANT-010, Alomone Las), Anti-NMDAR2B (ab65783, abcam plc). Following the incubation with antibodies and several rinses in PBST, the membranes were incubated for 1 h with the mouse anti-rabbit IgG-HRP conjugated secondary anti-bodies (sc-2357, Santa Cruz). Each blot was subsequently re-probed with anti-β-actin antibody (sc-47778, Santa Cruz). Housekeeping protein β actin was detected as a normalization control. Antibodies used for methods described herein are as follows: […]

In experiment [2] the test system is HDAC4, BDNF and GluN2B expression in primary cultured cortical neurons. Briefly: Expression of HDAC4, BDNF and GluN2B in primary cultured cortical neurons. It counts as cell-based, mouse. On the procedure: Meanwhile, primary cortical neuron cells were isolated from cerebral cortices of 18-day-old mouse fetuses, incubated in prep media (composition (mM). NaCl 107.5. NaH2PO4 1, NaHCO333.5, glucose 11, HEPS 1%, penicillin-streptomycin 1%) containing 0.25% trypsin and DNase1 for 30 minutes, dissociated into single cells, and seeded. Primary cortical neuron cells were grown in Neurobasal medium supplemented with 1% (v/v) B27, 1% penicillin (100 U/mL), streptomycin ([…]), and 1% Glutamax. Cells were maintained in a humidified atmosphere of 95% air and 5% CO2 at 37° C. Drug efficacy was evaluated after culturing primary cortical neuron cells for 14 days.
The amount of GluN2B reacted with the compound of the present disclosure was measured using Western blot. The fetal cerebral cortex was extracted from mice at 17 days of gestation, dissociated into single cells, cultured for 13 days, and treated with BnH drugs for 24 hours. The drug-treated cells were subjected to protein lysate preparation using RIPA protein lysis buffer containing protease and phosphatase inhibitors. The protein concentration was determined using a BCA protein assay kit (Pierce Biotechnology) using bovine serum albumin as a standard. Equal amounts of protein (20 μg per lane) were separated by electrophoresis on SDS-polyacrylamide gels at 90 V for 2 hours, then transferred from the SDS-polyacrylamide gel to PVDF membrane at 100 V for 1 hour. Then, primary reaction with GluN2B antibody (ab65783, Abcam) was performed at 4° C. for 1 day, washed three times at 10-minutes intervals with 1×PBT, and secondary reaction was performed with anti-mouse antibody (sc-2357, Santa Cruz) for 1 hour, followed by washing three times at 10-minutes intervals with 1×PBT. Western blotting was performed as described above to confirm GluN2B protein expression. Subsequently, each blot was re-probed using anti-β-actin antibody (sc-47778, Santa Cruz). Housekeeping protein β-actin was detected as a normalization control.

The mark [3] stands for this setting: primary cultured cortical neurons.
Where [4] appears, read: oral, 1 mg/kg, 8-week-old C57BL/6J mice, sacrificed 2 days later, vs vehicle.
The mark [5] stands for this setting: 1 μM, 24-hour treatment, cultured primary cortical neurons (DIV 14).

Consider `CC1CCC(C(=O)O)CN1C(=O)Cc1ccc(F)cc1Cl` (racemic) [BnH12001, 1-(2-(2-chloro-4-fluorophenyl)acetyl)-6-methylpiperidine-3-carboxylic acid], for which the “HDAC4 protein expression in mice barrel cortex” value in experiment [1] (intraperitoneal administration) is given as “significantly suppressed”. The “HDAC4 protein expression in mice barrel cortex” value in experiment [1] (oral administration) was “significantly suppressed”. In experiment [1] (oral and intraperitoneal administration, mice barrel cortex), the “Duration of inhibitory effect on HDAC4 protein expression” value is listed as at least 9 days. In addition, in experiment [2] (setting [3]), the BDNF expression result is “significantly increased”, the GluN2B expression entry is reported as “significantly increased” and the HDAC4 protein expression result is “significantly suppressed”.
In the case of `C[C@@H]1CC[C@H](C(=O)O)CN1C(=O)Cc1ccc(F)cc1Cl` [BnH12001 enantiomer (3S,6R, 98%<), (3S,6R)-1-(2-(2-chloro-4-fluorophenyl)acetyl)-6-methylpiperidine-3-carboxylic acid], the figures for the BDNF expression result in experiment [1] (setting [4]) and in experiment [2] (setting [5]) were “significantly increased” and “increased”, respectively. Also, the GluN2B expression result is reported as “significantly increased” in experiment [1] (setting [4]); “significantly increased” in experiment [1] (oral, 1 mg/kg, 13-month-old C57BL/6J mice, sacrificed 2 days later, vs vehicle); “increased” in experiment [2] (setting [5]). For the same molecule, the HDAC4 expression result in experiment [1] (setting [4]) is “effectively degraded”.
